Legend:
[1] = Blockade of human ENaC expressed in HBE cells by short-circuit current assay; type: cell-based
[2] = Blockade of guinea pig ENaC expressed in FRT cells by short-circuit current assay; type: cell-based; details: Cavia porcellus
Cavia porcellus [3] = assay: Blockade of ENaC in intratracheally dosed Dunkin Hartley guinea pig tracheal potential difference model after 1 hr; type: functional; details: inhaled or nasal
BE = assay: Ratio of amiloride IC50 to compound IC50 for human ENaC expressed in HBE cells; type: cell-based
Cavia porcellus [4] = assay: Ratio of amiloride ED50 to compound ED50 for blockade of ENaC in intratracheally dosed Dunkin Hartley guinea pig; type: functional

| SMILES | IC50 [1] [nM] | other results |
| --- | --- | --- |
| CC(C)[C@@H](CNC(=O)c1nc(Cl)c(N)nc1N)[N+](C)(C)C | 2390 |  |
| C[C@H](CNC(=O)c1nc(Cl)c(N)nc1N)[N+](C)(C)C | > 10000 |  |
| CCC[C@H](CNC(=O)c1nc(Cl)c(N)nc1N)[N+](C)(C)C | 290 |  |
| CCCC[C@@H](CNC(=O)c1nc(Cl)c(N)nc1N)[N+](C)(C)C | 59 |  |
| CCC[C@@H](CNC(=O)c1nc(Cl)c(N)nc1N)[N+](C)(C)C.[I-] | 30 | IC50 [2]: 30 nM; ED50 (Cavia porcellus [3]): 1 µg/kg; Ratio IC50 (BE): 10; Ratio ED50 (Cavia porcellus [4]): 16 |
| CC[C@H](CNC(=O)c1nc(Cl)c(N)nc1N)[N+](C)(C)C | 510 |  |
| CC[C@@H](CNC(=O)c1nc(Cl)c(N)nc1N)[N+](C)(C)C | 750 |  |
| N=C(N)NC(=O)c1nc(Cl)c(N)nc1N [AMILORIDE] | 220 | IC50 [2]: 540 nM; ED50 (Cavia porcellus [3]): 16 µg/kg |
| C[N+](C)(C)[C@H](CNC(=O)c1nc(Cl)c(N)nc1N)Cc1ccccc1 | 170 |  |

Continued, in another order:

| IC50 [1] [nM] | SMILES | other results |
| --- | --- | --- |
| 4 | CCC[C@@H](CNC(=O)c1nc(Cl)c(N)nc1N)[N+](C)(C)CCCc1ccc(OC)cc1 |  |
| 2 | N/C(=N\C(=O)c1nc(Cl)c(N)nc1N)NCCCCc1ccc(OCC(O)CO)cc1 (configuration not stated) [552-02 FREE BASE] | IC50 [2]: 4 nM; ED50 (Cavia porcellus [3]): 0.2 µg/kg |
| 19500 | CC(C)[C@H](CNC(=O)c1nc(Cl)c(N)nc1N)[N+](C)(C)C |  |
| 8090 | C[C@@H](CNC(=O)c1nc(Cl)c(N)nc1N)[N+](C)(C)C |  |
| > 30000 | CC(C)(CNC(=O)c1nc(Cl)c(N)nc1N)[N+](C)(C)C |  |
